Source: patent US12023319B2, “Carboxylic acid aromatic amides” (priority 2016, dated 2024)

target: T1, human Bradykinin B1 receptor (Homo sapiens, UniProt P46663); assay: Calcium flux assay (FLIPR), CHO-K1 cells expressing human Bradykinin B1 receptor, absence of 0.1% BSA (hB1 free IC50); format: cell-based; settings: absence of 0.1% BSA in assay buffer
T1 construct: host or cells: CHO-K1
T1 sequence (P46663 1-353): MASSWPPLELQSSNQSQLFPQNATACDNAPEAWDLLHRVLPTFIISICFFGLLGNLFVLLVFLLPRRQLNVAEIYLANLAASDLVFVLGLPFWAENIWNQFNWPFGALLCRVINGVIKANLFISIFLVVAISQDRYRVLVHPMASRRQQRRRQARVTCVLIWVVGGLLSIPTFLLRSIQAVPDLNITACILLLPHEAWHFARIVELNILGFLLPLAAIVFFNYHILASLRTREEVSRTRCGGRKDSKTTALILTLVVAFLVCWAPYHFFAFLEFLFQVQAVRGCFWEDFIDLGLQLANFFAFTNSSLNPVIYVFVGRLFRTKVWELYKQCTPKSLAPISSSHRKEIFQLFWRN
Description: The potency to inhibit the Bradykinin B1 receptor was determined for the Compound Examples of this invention in a cell-based fluorescent calcium-mobilisation assay. The assay measures the ability of Compound Examples to inhibit Bradykinin B1 receptor agonist-induced increase of intracellular free Ca^2+ in the cell line expressing Bradykinin B1 receptor. Specifically, calcium indicator-loaded cells are pre-incubated in the absence or presence of different concentrations of Compound Examples followed by the stimulation with a selective Bradykinin B1 receptor agonist peptide. The change of the intracellular Ca^2+ concentration is monitored with a fluorescent plate reader FLIPR^TETRA® (Molecular Devices).
Calcium Flux Assays (FLIPR) with Cells Expressing Human Bradykinin B1 Receptor (hB1)
CHO-K1 cell line expressing human Bradykinin B1 receptor is purchased from Euroscreen (Gosselies, Belgium, with reference name hB1-D1). The cells are grown in Nutrient Mixture Ham's F12 (Sigma) containing 10% Foetal bovine serum (Sigma) and 400 μg/mL G418 (Sigma), 5 μg/mL puromycin (Sigma).
The effect of BSA on the potency of endothelin receptor antagonists have been described in the prior art (Wu-Wong, J. R. et al. (1997), JPET 281: 791-798). The teaching can be applied in analogy to testing the potency of Bradykinin B1 receptor antagonist in the FLIPR assays.
For the calcium flux assay, 80% confluent cells are detached from the culture vessels with Versene (Gibco), and seeded into 384-well plates (Cell binding Surface; Corning, NY; #3683) at a density of 15,000 cells per well. Cells are seeded in a volume of 50 μL in medium without antibiotics and incubated overnight in a humidified atmosphere with 5% CO2 at 37° C. […] The calcium indicator loaded cells are incubated at 37° C. for 2 hrs. Extracellular dye is then removed and each well is filled with 45 μL of assay buffer. Cell plates are kept in dark until used. Compound examples are assayed at 8 concentrations in triplicate. Serial 10-fold dilutions in 100% DMSO are made at a 100-times higher concentration than the final concentration, and then diluted 1:10 in assay buffer. 5 μL of each diluted compound is added to the well of cell plates (yielding final concentration with 1% DMSO), and incubated for 30 min at 28° C. before the addition of Bradykinin B1 receptor agonist on the FLIPR instrument.
The addition of agonist 20 μl per well to the assay plate is carried out on the FLIPR instrument while continuously monitoring Ca2+-dependent fluorescence at 538 nm. A peptide antagonist Lys-(Des-Arg-Leu)-Bradykinin (Bachem, Brackley) at 20 µM is used to determine the full inhibition as control.
Peak fluorescence is used to determine the response to agonist obtained at each concentration of Compound Examples by the following equation: % Response=100*(RFU(compound)−RFU(control))/(RFU(DMSO)−RFU(control))
RFU means relative fluorescence units.
Control means full inhibition by the peptide antagonist Lys-(Des-Arg-Leu)-Bradykinin at 20 µM.
The response values are plotted against the logarithm of the compound concentrations. The Compound Examples are tested in triplicates per plate and mean values are plotted in Excel XLfit to determine IC50 values, percentage of maximal inhibition and the Hill slopes.

Row | Structure (SMILES) | IC50
1 | CC(C)(C)c1cn(-c2c(F)cc(NC(=O)C3(c4ccc(C(F)(F)F)cc4F)CC3)cc2C(=O)O)cn1 [Example 90, 2-(4-tert-Butyl-1H-imidazol-1-yl)-3-fluoro-5-[({1-[2-fluoro-4-(trifluoromethyl)phenyl]cyclopropyl}carbonyl)amino]benzoic acid] | 24 nM
2 | CC(C)Cn1cc(-c2c(F)cc(NC(=O)C3(c4ccc(C(F)(F)F)cc4F)CC3)cc2C(=O)O)cn1 [Example 92, 3-Fluoro-5-[({1-[2-fluoro-4-(trifluoromethyl)phenyl]cyclopropyl}carbonyl)amino]-2-(1-isobutyl-1H-pyrazol-4-yl)benzoic acid] | 29 nM
3 | CC(C)(C)n1cc(-c2c(F)cc(NC(=O)C3(c4ccc(C(F)(F)F)cc4F)CC3)cc2C(=O)O)cn1 [Example 93, 2-(1-tert-Butyl-1H-pyrazol-4-yl)-3-fluoro-5-[({1-[2-fluoro-4-(trifluoromethyl)phenyl]cyclopropyl}carbonyl)amino]benzoic acid] | 61 nM
4 | O=C(O)c1cc(NC(=O)C2(c3ccc(C(F)(F)F)cc3F)CC2)cc(F)c1-c1ccc(C(F)F)nc1 [Example 94, 2-[6-(Difluoromethyl)pyridin-3-yl]-3-fluoro-5-[({1-[2-fluoro-4-(trifluoromethyl)phenyl]cyclopropyl}carbonyl)amino]benzoic acid] | 20 nM
5 | O=C(O)c1c(-c2cnn(C3CCC3)c2)ccc(NC(=O)C2(c3ccc(C(F)(F)F)cc3F)CC2)c1F [Example 98, 6-(1-Cyclobutyl-1H-pyrazol-4-yl)-2-fluoro-3-[({1-[2-fluoro-4-(trifluoromethyl)phenyl]cyclopropyl}carbonyl)amino]benzoic acid] | 2700 nM
6 | O=C(O)c1c(-c2cnn(C3CCC3)c2)ccc(NC(=O)C2(c3ccc(OC(F)(F)F)cc3F)CC2)c1F [Example 99, 6-(1-Cyclobutyl-1H-pyrazol-4-yl)-2-fluoro-3-[({1-[2-fluoro-4-(trifluoromethoxy)phenyl]cyclopropyl}carbonyl)amino]benzoic acid] | 2000 nM
7 | O=C(O)c1cc(NC(=O)C2(c3ccc(C(F)(F)F)cc3F)CC2)cc(Cl)c1-c1ccc(C(F)F)nc1 [Example 102, 3-Chloro-2-[6-(difluoromethyl)pyridin-3-yl]-5-[({1-[2-fluoro-4-(trifluoromethyl)phenyl]cyclopropyl}carbonyl)amino]benzoic acid] | 110 nM
8 | O=C(O)c1cc(NC(=O)C2(c3ccc(OC(F)(F)F)cc3F)CC2)cc(Cl)c1-c1ccc(C(F)F)nc1 [Example 103, 3-Chloro-2-[6-(difluoromethyl)pyridin-3-yl]-5-[({1-[2-fluoro-4-(trifluoromethoxy)phenyl]cyclopropyl}carbonyl)amino]benzoic acid] | 62 nM
9 | O=C(O)c1cc(NC(=O)C2(c3ccc(C(F)(F)F)cc3F)CC2)cc(Cl)c1-c1ccc(C(F)(F)F)nc1 [Example 104, 3-Chloro-5-[({1-[2-fluoro-4-(trifluoromethyl)phenyl]cyclopropyl}carbonyl)amino]-2-[6-(trifluoromethyl)pyridin-3-yl]benzoic acid] | 130 nM
10 | Cc1cc(NC(=O)C2(c3ccc(C(F)(F)F)cc3F)CC2)cc(C(=O)O)c1-c1ccc(C(F)F)nc1 [Example 109, 2-[6-(Difluoromethyl)pyridin-3-yl]-5-[({1-[2-fluoro-4-(trifluoromethyl)phenyl]cyclopropyl}carbonyl)amino]-3-methylbenzoic acid] | 770 nM
11 | Cc1cc(NC(=O)C2(c3ccc(OC(F)(F)F)cc3F)CC2)cc(C(=O)O)c1-c1ccc(C(F)F)nc1 [Example 110, 2-[6-(Difluoromethyl)pyridin-3-yl]-5-[({1-[2-fluoro-4-(trifluoromethoxy)phenyl]cyclopropyl}carbonyl)amino]-3-methylbenzoic acid] | 580 nM
12 | Cc1cc(NC(=O)C2(c3ccc(C(F)(F)F)cc3F)CC2)cc(C(=O)O)c1-c1ccc(C(F)(F)F)nc1 [Example 111, 5-[({1-[2-Fluoro-4-(trifluoromethyl)phenyl]cyclopropyl}carbonyl)amino]-3-methyl-2-[6-(trifluoromethyl)pyridin-3-yl]benzoic acid] | 2400 nM
13 | CCC(F)(F)c1ccc(-c2c(C)cc(NC(=O)C3(c4ccc(C(F)(F)F)cc4F)CC3)cc2C(=O)O)cn1 [Example 112, 2-[6-(1,1-Difluoropropyl)pyridin-3-yl]-5-[({1-[2-fluoro-4-(trifluoromethyl)phenyl]cyclopropyl}carbonyl)amino]-3-methylbenzoic acid] | 240 nM
14 | CCC(F)(F)c1ccc(-c2c(C)cc(NC(=O)C3(c4ccc(OC(F)(F)F)cc4F)CC3)cc2C(=O)O)cn1 [Example 113, 2-[6-(1,1-Difluoropropyl)pyridin-3-yl]-5-[({1-[2-fluoro-4-(trifluoromethoxy)phenyl]cyclopropyl}carbonyl)amino]-3-methylbenzoic acid] | 120 nM
15 | CCCn1cc(-c2ccc(NC(=O)C3(c4ccc(C(F)(F)F)cc4F)CC3)cc2C(=O)O)cn1 [Example 114, 5-[({1-[2-Fluoro-4-(trifluoromethyl)phenyl]cyclopropyl}carbonyl)amino]-2-(1-propyl-1H-pyrazol-4-yl)benzoic acid] | 85 nM
16 | CCCn1cc(-c2ccc(NC(=O)C3(c4ccc(OC(F)(F)F)cc4F)CC3)cc2C(=O)O)cn1 [Example 115, 5-[({1-[2-Fluoro-4-(trifluoromethoxy)phenyl]cyclopropyl}carbonyl)amino]-2-(1-propyl-1H-pyrazol-4-yl)benzoic acid] | 120 nM
17 | CC(C)Cn1cc(-c2ccc(NC(=O)C3(c4ccc(F)cc4F)CC3)cc2C(=O)O)cn1 [Example 116, 5-({[1-(2,4-Difluorophenyl)cyclopropyl]carbonyl}amino)-2-(1-isobutyl-1H-pyrazol-4-yl)benzoic acid] | 210 nM
18 | CC(C)Cn1cc(-c2ccc(NC(=O)C3(c4ccc(Cl)cc4F)CC3)cc2C(=O)O)cn1 [Example 117, 5-({[1-(4-Chloro-2-fluorophenyl)cyclopropyl]carbonyl}amino)-2-(1-isobutyl-1H-pyrazol-4-yl)benzoic acid] | 56 nM
19 | Cc1ccc(C2(C(=O)Nc3ccc(-c4cnn(CC(C)C)c4)c(C(=O)O)c3)CC2)c(F)c1 [Example 118, 5-({[1-(2-Fluoro-4-methylphenyl)cyclopropyl]carbonyl}amino)-2-(1-isobutyl-1H-pyrazol-4-yl)benzoic acid] | 130 nM
20 | O=C(O)c1cc(NC(=O)C2(c3ccc(C(F)(F)F)cc3F)CC2)ccc1-c1cnn(CC2CCC2)c1 [Example 119, 2-[1-(Cyclobutylmethyl)-1H-pyrazol-4-yl]-5-[({1-[2-fluoro-4-(trifluoromethyl)phenyl]cyclopropyl}carbonyl)amino]benzoic acid] | 25 nM
21 | O=C(O)c1cc(NC(=O)C2(c3ccc(OC(F)(F)F)cc3F)CC2)ccc1-c1cnn(CC2CCC2)c1 [Example 120, 2-[1-(Cyclobutylmethyl)-1H-pyrazol-4-yl]-5-[({1-[2-fluoro-4-(trifluoromethoxy)phenyl]cyclopropyl}carbonyl)amino]benzoic acid] | 17 nM
22 | O=C(O)c1cc(NC(=O)C2(c3ccc(C(F)(F)F)cc3F)CC2)ccc1-c1cnn(C2CCCC2)c1 [Example 121, 2-(1-Cyclopentyl-1H-pyrazol-4-yl)-5-[({1-[2-fluoro-4-(trifluoromethyl)phenyl]cyclopropyl}carbonyl)amino]benzoic acid] | 18 nM
23 | O=C(O)c1cc(NC(=O)C2(c3ccc(C(F)(F)F)cc3F)CC2)ccc1-c1cnn(C2CCCCC2)c1 [Example 122, 2-(1-Cyclohexyl-1H-pyrazol-4-yl)-5-[({1-[2-fluoro-4-(trifluoromethyl)phenyl]cyclopropyl}carbonyl)amino]benzoic acid] | 13 nM
